Species: Rattus norvegicus
Test: Open TG-GATES - Regimen: Daily Repeat
Format: toxicity, organism-based, Sprague-Dawley
Set-up: regimen Daily Repeat, gender Male, age 6 weeks
Details: in vivo, po, 1000 mg/kg, route gavage, dose level High; for APTT / Bas / Eos / Fbg / Hb / Ht / Lym / MCH / MCHC / MCV / Mono / Neu / PT / Plat / RBC / Ret / WBC: tissue Blood; for KIDNEY_L / KIDNEY_R / KIDNEY_TOTAL: tissue Kidney; for LIVER: tissue Liver; for A/G / ALP / ALT / AST / BUN / CRE / Ca / Cl / DBIL / GLC / IP / K / LDH / Na / PL / RALB / TBIL / TC / TG / TP / gamma-GTP: tissue Plasma

CN/C(=N/CCSCc1nc[nH]c1C)NC#N [CIMETIDINE]
TERMINAL_BW (72 h, time 3 day): 228.7 g
APTT (72 h, time 3 day): 18.9 s
Bas (72 h, time 3 day): 0%
Eos (72 h, time 3 day): 1%
Fbg (72 h, time 3 day): 228.6 mg/dL
Hb (72 h, time 3 day): 13.1 g/dL
Ht (72 h, time 3 day): 38.7%
Lym (72 h, time 3 day): 80.8%
MCH (72 h, time 3 day): 21.1 pg
MCHC (72 h, time 3 day): 33.8%
MCV (72 h, time 3 day): 62.3 fL
Mono (72 h, time 3 day): 2.6%
Neu (72 h, time 3 day): 14.8%
PT (72 h, time 3 day): 12.7 s
Plat (72 h, time 3 day): 135 x10_4/uL
RBC (72 h, time 3 day): 620.4 x10_4/ul
Ret (72 h, time 3 day): 5.4%
WBC (72 h, time 3 day): 96.4 x10_2/uL
KIDNEY_L (72 h, time 3 day): 1 g
KIDNEY_R (72 h, time 3 day): 1 g
KIDNEY_TOTAL (72 h, time 3 day): 2 g
LIVER (72 h, time 3 day): 11.5 g
A/G (72 h, time 3 day): 1.6
ALP (72 h, time 3 day): 1004 IU/L
ALT (72 h, time 3 day): 40 IU/L
AST (72 h, time 3 day): 74 IU/L
BUN (72 h, time 3 day): 16.2 mg/dL
CRE (72 h, time 3 day): 0.4 mg/dL
Ca (72 h, time 3 day): 11 mg/dL
Cl (72 h, time 3 day): 102.8 meq/L
DBIL (72 h, time 3 day): 0.1 mg/dL
GLC (72 h, time 3 day): 201.6 mg/dL
IP (72 h, time 3 day): 7 mg/dL
K (72 h, time 3 day): 3.8 meq/L
LDH (72 h, time 3 day): 190.8 IU/L
Na (72 h, time 3 day): 140.8 meq/L
PL (72 h, time 3 day): 156.6 mg/dL
RALB (72 h, time 3 day): 3.4 g/dL
TBIL (72 h, time 3 day): 0.2 mg/dL
TC (72 h, time 3 day): 79.8 mg/dL
TG (72 h, time 3 day): 118.6 mg/dL
TP (72 h, time 3 day): 5.5 g/dL
gamma-GTP (72 h, time 3 day): 1.2 IU/L
TERMINAL_BW ([…], time 7 day): 263.6 g
TERMINAL_BW ([…], time 14 day): 302.5 g
TERMINAL_BW ([…], time 28 day): 396.8 g
APTT ([…], time 7 day): 16.9 s
Bas ([…], time 7 day): 0%
Eos ([…], time 7 day): 1%
Fbg ([…], time 7 day): 235.6 mg/dL
Hb ([…], time 7 day): 13.6 g/dL
Ht ([…], time 7 day): 40.7%
Lym ([…], time 7 day): 81%
MCH ([…], time 7 day): 21.1 pg
MCHC ([…], time 7 day): 33.5%
MCV ([…], time 7 day): 62.9 fL
Mono ([…], time 7 day): 2.6%
Neu ([…], time 7 day): 14.4%
PT ([…], time 7 day): 12.6 s
Plat ([…], time 7 day): 121.2 x10_4/uL
RBC ([…], time 7 day): 646.4 x10_4/ul
Ret ([…], time 7 day): 5%
WBC ([…], time 7 day): 94.8 x10_2/uL
APTT ([…], time 14 day): 20.1 s
Bas ([…], time 14 day): 0%
Eos ([…], time 14 day): 1%
Fbg ([…], time 14 day): 225.8 mg/dL
Hb ([…], time 14 day): 14.2 g/dL
Ht ([…], time 14 day): 43.3%
Lym ([…], time 14 day): 80.8%
MCH ([…], time 14 day): 19.5 pg
MCHC ([…], time 14 day): 32.6%
MCV ([…], time 14 day): 59.7 fL
Mono ([…], time 14 day): 2.2%
Neu ([…], time 14 day): 15.4%
PT ([…], time 14 day): 12.9 s
Plat ([…], time 14 day): 128 x10_4/uL
RBC ([…], time 14 day): 726.4 x10_4/ul
Ret ([…], time 14 day): 4.3%
WBC ([…], time 14 day): 110.4 x10_2/uL
APTT ([…], time 28 day): 19.4 s
Bas ([…], time 28 day): 0%
Eos ([…], time 28 day): 1.6%
Fbg ([…], time 28 day): 216.2 mg/dL
Hb ([…], time 28 day): 14.9 g/dL
Ht ([…], time 28 day): 43.2%
Lym ([…], time 28 day): 83.4%
MCH ([…], time 28 day): 19 pg
MCHC ([…], time 28 day): 34.4%
MCV ([…], time 28 day): 55.3 fL
Mono ([…], time 28 day): 2%
Neu ([…], time 28 day): 12.6%
PT ([…], time 28 day): 13.2 s
Plat ([…], time 28 day): 102.4 x10_4/uL
RBC ([…], time 28 day): 782 x10_4/ul
Ret ([…], time 28 day): 2.9%
WBC ([…], time 28 day): 177.7 x10_2/uL
KIDNEY_L ([…], time 7 day): 1.1 g
KIDNEY_R ([…], time 7 day): 1.1 g
KIDNEY_TOTAL ([…], time 7 day): 2.2 g
KIDNEY_L ([…], time 14 day): 1.2 g
KIDNEY_R ([…], time 14 day): 1.3 g
KIDNEY_TOTAL ([…], time 14 day): 2.5 g
KIDNEY_L ([…], time 28 day): 1.4 g
KIDNEY_R ([…], time 28 day): 1.4 g
KIDNEY_TOTAL ([…], time 28 day): 2.8 g
LIVER ([…], time 7 day): 12.9 g
LIVER ([…], time 14 day): 14.1 g
LIVER ([…], time 28 day): 16.4 g
A/G ([…], time 7 day): 1.4
ALP ([…], time 7 day): 1073 IU/L
ALT ([…], time 7 day): 38.4 IU/L
AST ([…], time 7 day): 72.2 IU/L
BUN ([…], time 7 day): 17 mg/dL
CRE ([…], time 7 day): 0.5 mg/dL
Ca ([…], time 7 day): 11 mg/dL
Cl ([…], time 7 day): 101.8 meq/L
DBIL ([…], time 7 day): 0.096 mg/dL
GLC ([…], time 7 day): 216 mg/dL
IP ([…], time 7 day): 7.9 mg/dL
K ([…], time 7 day): 4 meq/L
LDH ([…], time 7 day): 279.2 IU/L
Na ([…], time 7 day): 140.4 meq/L
PL ([…], time 7 day): 165.8 mg/dL
RALB ([…], time 7 day): 3.3 g/dL
TBIL ([…], time 7 day): 0.1 mg/dL
TC ([…], time 7 day): 79.4 mg/dL
TG ([…], time 7 day): 134.4 mg/dL
TP ([…], time 7 day): 5.6 g/dL
gamma-GTP ([…], time 7 day): 1.8 IU/L
A/G ([…], time 14 day): 1.4
ALP ([…], time 14 day): 808 IU/L
ALT ([…], time 14 day): 31.2 IU/L
AST ([…], time 14 day): 62.2 IU/L
BUN ([…], time 14 day): 19 mg/dL
CRE ([…], time 14 day): 0.4 mg/dL
Ca ([…], time 14 day): 10.7 mg/dL
Cl ([…], time 14 day): 101.8 meq/L
DBIL ([…], time 14 day): 0.1 mg/dL
GLC ([…], time 14 day): 213.4 mg/dL
IP ([…], time 14 day): 7.7 mg/dL
K ([…], time 14 day): 3.7 meq/L
LDH ([…], time 14 day): 186.8 IU/L
Na ([…], time 14 day): 141 meq/L
PL ([…], time 14 day): 165.6 mg/dL
RALB ([…], time 14 day): 3.4 g/dL
TBIL ([…], time 14 day): 0.2 mg/dL
TC ([…], time 14 day): 85.8 mg/dL
TG ([…], time 14 day): 111.2 mg/dL
TP ([…], time 14 day): 5.8 g/dL
gamma-GTP ([…], time 14 day): 1.8 IU/L
A/G ([…], time 28 day): 1.1
ALP ([…], time 28 day): 637.6 IU/L
ALT ([…], time 28 day): 40 IU/L
AST ([…], time 28 day): 66.6 IU/L
BUN ([…], time 28 day): 20.4 mg/dL
CRE ([…], time 28 day): 0.6 mg/dL
Ca ([…], time 28 day): 10.2 mg/dL
Cl ([…], time 28 day): 101 meq/L
DBIL ([…], time 28 day): 0.1 mg/dL
GLC ([…], time 28 day): 284 mg/dL
IP ([…], time 28 day): 8.1 mg/dL
K ([…], time 28 day): 3.5 meq/L
LDH ([…], time 28 day): 178.2 IU/L
Na ([…], time 28 day): 140 meq/L
PL ([…], time 28 day): 158.2 mg/dL
RALB ([…], time 28 day): 3.1 g/dL
TBIL ([…], time 28 day): 0.2 mg/dL
TC ([…], time 28 day): 77.8 mg/dL
TG ([…], time 28 day): 113.6 mg/dL
TP ([…], time 28 day): 5.9 g/dL
gamma-GTP ([…], time 28 day): 1.4 IU/L

Reference: ChEMBL document CHEMBL3885861, “Open TG-GATES”
